Source: article PMC12195250, “Synthesis, Biological Evaluation, Molecular Dynamics, and QM-MM Calculation of Spiro-Acridine Derivatives Against Leishmaniasis” (Microorganisms, 2025)

Legend:
[1] = tested on: J774 macrophages infected with L. amazonensis amastigotes; assay: Cytokine profile by cytometry bead assay (CBA); type: cell-based; conditions: 24 h; for IL-6 expression: 8 µg/mL, versus untreated infected macrophages; for modulation of the IL-2 response: basal or infected macrophages, 2, 4 and 8 µg/mL; for IL-4 expression / IL-10 expression / TNF-α expression: infected macrophages, 2, 4 and 8 µg/mL; for TNF-α expression: versus untreated infected
Description: The assessment of the influence of spiro-acridine derivatives on the cytokine profile of immunological responses was carried out by the quantification of the cytokines IL-2, IL-4, IL-6, IL-10, IL-17A, INF-γ, and TNF-α in supernatants of cell cultures of J774 macrophages infected with L. amazonensis amastigotes through cytometry bead assay (CBA), according to the manufacturer’s instructions (BD Bioscience, Franklin Lakes, NJ, USA). The cells were adhered to a plate, infected with amastigotes of L. amazonensis, and treated with the spiro-acridines under analysis in the following concentrations: 2, 4, and 8 μg/mL. After the 24-h treatment period, 50 μL of the supernatant from each well was transferred to a conical tube, while 50 μL of the capture bead mixture and 50 μL of the detection reagent were added. The samples were incubated for 2 h at room temperature and protected from light. After incubation, 500 μL of washing buffer was added to each tube, followed by centrifugation for 5 min. The supernatant was discarded, and 300 μL of washing buffer was added. A calibration curve containing the following concentrations of each cytokine was added to the experiment: 0, 20, 40, 80, 156, 312.5, 625, 1250, 2500, and 5000 pg/mL. Uninfected and untreated macrophages were used as the negative control, while the untreated macrophages infected with L. amazonensis were used as the positive control. The fluorescence intensity in each sample was captured on the BD LRS II FORTESSA flow cytometer using the DIVA program version 7 (BD Bioscience), and the fluorescence data was processed using the FCAP array program version 3 (BD Bioscience). The experiments were performed in triplicate.

J774A.1 macrophages = assay: Cytotoxic effect in J774 macrophage cultures, MTT; type: cell-based; conditions: read-out: CC50 (50% cytotoxic concentration in J774 macrophage)
Description: J774A.1 macrophages (ATCC TIB-67) were kept cryopreserved in a Falcon tube containing 5 mL of DMEM (Dulbecco’s modified Eagle medium) culture medium (Gibco®), supplemented with 10% inactivated fetal bovine serum, 1% non-essential amino acids, and 1% gentamicin sulfate. The tube was centrifuged at 200 rpm for 10 min. Afterward, the supernatant was discarded, and the cells were resuspended in the culture medium and transferred to a culture bottle kept in an incubator at 37 °C with 5% CO2. The assays were carried out in triplicate using a 96-well plate to evaluate the cytotoxic effect of the selected spiro-acridine compounds on J774 macrophage cultures. The compounds were diluted and seeded at predetermined concentrations (32, 16, 8, 4, and 2 μg/mL), parallel to the distribution of 1.0 × 10^5 J774 macrophages per well. The plate was incubated for two hours in a 5% CO2 incubator at 37 °C. Only the cells were incubated in the negative control without the tested molecules. In contrast, the positive control was performed by incubating the macrophages with the commercial drug Amphotericin B®. Later, 10 μL of the MTT reagent was added per well, and the cultures were re-incubated for 4 h. Finally, 50 μL of DMSO was added to each well, and the absorbance was read on a SpectraMAX GeminiXS plate spectrophotometer (Molecular Devices LLC, San Jose, CA, USA) at a wavelength of 570 nm. […]

In the case of `N#CC1=CC2(c3ccccc3Nc3ccccc32)N(c2ccc(Cl)cc2)C1=O` [ACMD-03, (E)1′-(4-chlorophenyl)-5′-oxo-1′, 5′-dihydro-10H-spiro{acridine-9,2′-pyrrole]-4′-carbonitrile], the IL-6 expression [1] is reported as “significant decrease in IL-6 expression”, the “modulation of the IL-2 response” value [1] is reported as “did not demonstrate a modulation of the IL-2 response” and the IL-4 expression [1] is reported as “Neither of the two molecules significantly influenced IL-4 expression”. For the same molecule, the IL-10 expression [1] was “significantly increased the expression of IL-10 at concentrations of 4 and 8 µg/mL”, the TNF-α expression [1] was “significant reduction in TNF-α expression” and the “IL-17A level (Th17 response)” value ([1]; versus basal and parasite-infected macrophages) was “significant increase in this interleukin at a concentration of 4 µg/mL”. For the same molecule, the CC50 (J774A.1 macrophages) was 27.2 µM.

With `COc1ccc(/C=N/N2C(=O)C(C#N)=CC23c2ccccc2Nc2ccccc23)cc1` [AMTAC-02, (E)-1′-((4-methoxybenzylidene)amino)-5′-oxo-1′,5′-dihydro-10H-spiro[acridine-9,2′-pyrrole]-4′-carbonitrile] the IL-6 expression [1] was “significant decrease in IL-6 expression”, the “modulation of the IL-2 response” value [1] was “did not demonstrate a modulation of the IL-2 response” and the IL-4 expression [1] was “Neither of the two molecules significantly influenced IL-4 expression”. For the same molecule, the IL-10 expression [1] was “no significant increase in IL-10 expression” and the TNF-α expression [1] was “significant reduction in TNF-α expression”.
